Measured values from US20240207202A1, “COMBINATION THERAPIES TARGETING MITOCHONDRIAL BIOGENESIS FOR CANCER THERAPY” (The Wistar Institute of Anatomy and Biology, priority 2015, published 2024).

Key:
[1] = test system: mitochondrial respiration; assay: Real-time oxygen consumption rates (Seahorse XF 24) in WM9 cells; assay type: cell-based, human; details: WM9, 72 h, Gamitrinib 1 μM added to PLX4720 10 μM and PD0325901 1 μM
Experimental: FIGS. 5A-5I. Gamitrinib, An Inhibitor of Mitochondrial Hsp90-directed Protein Folding, Suppresses Mitochondrial Biogenesis and Bioenergetics (A) Induction of apoptosis and cell death by PSVue 643 staining in WM9 melanoma cells treated for 72 h with the combination of Gamitrinib (Gami), Rapamycin, Phenformin (Phen), BEZ235 or 2,4-DNP at titrated doses and PLX4720 at 10 μM, PD0325901 at 1 μM and Gamitrinib at 2.5 μM. Cells treated with DMSO were used as the control. The data represent the average of 2 biological replicates. (B) Relative cell viability assessed by CellTiter Glo in WM9 cells treated for 72 h with DMSO, PLX4720 at 10 μM or the combination of PLX4720 at 10 μM and PD0325901 at 1 μM together with Gamitrinib at titrated doses. (C) Immunoblotting of proteins related to OxPhos, glycolysis, autophagy and the MAPK pathway in WM9 cells treated with PLX4720 at 10 μM and Gamitrinib as single inhibitors or in combination during a time course of 72 h. Cells treated with DMSO are used as the control. (D) Real-time oxygen consumption in WM9 cells subjected to the metabolic stress test with Seahorse XF 24 Analyzer. […] (H) Relative gene expression of 7 representative glycolysis genes assessed by qRT-PCR in WM9 cells treated for 48 h with DMSO or the combination of PLX4720 at 10 μM and PD0325901 at 1 μM with or without the addition of Gamitrinib at 2.5 μM. […]

mitochondrial mass = assay: Mitochondrial mass by MitoTracker Red; assay type: cell-based, human; details: WM9, 72 h, Gamitrinib 1 μM combined with MAPK pathway inhibitors
Experimental: Adherent melanoma cells were harvested with 0.05% Trypsin-EDTA and were washed once with 1×DPBS. Cells were labeled with CellTrace™ Violet according to the manufacturer's protocol and were allowed to adhere to tissue culture plates overnight following the drug treatment. At indicated time points following the drug treatment, floating and adherent cells were pooled, washed with Hank's Buffered Salt Solution (HBSS) and then stained with CellROX Deep Red at 2.5 μM or MitoTracer Red at 0.25 μM for 1 h in a 37° C. humidified incubator supplied with 5% CO2. Cells were then pelleted, washed with DPBS, and stained with PSVue® 643 at 5 μM diluted in TES buffer for 5 min in the dark. Cells were then immediately subjected to FACS analysis using a BD LSR II flow cytometer and at least 5,000 cells per sample were acquired.

2-NBDG uptake = assay: Uptake of 2-NBDG in WM9 cells; assay type: cell-based, human; details: WM9, 72 h, Gamitrinib combined with PLX4720 10 μM
Experimental: Cells were washed with HBSS and were then pre-incubated with Opti-MEM (Life Technologies) for 15 min. Cells were then incubated with DMEM deprived of glucose, glutamine and phenol red (Life Technologies, cat. #A14430-01) and Fetal Bovine Serum that was supplemented with 2-NBDG (Cayman Chemical, cat. #11046) at […] for 1 h. Cells were washed with HBSS and were immediately harvested for FACS analysis.

[2] = test system: 1205Lu melanoma xenograft; assay: Tumor volume of 1205Lu melanoma xenografts; assay type: in vivo, mice; details: 1205Lu xenografts; for % T/C (percentages of tumor volumes): Table 7, 17 days, alone or with PLX4720 200 mg/kg diet
ATP production = ATP production in WM9 cells; assay type: cell-based, human; details: WM9, 72 h, Gamitrinib combined with PLX4720 10 μM
Experimental: Cells were seeded into Black Plate, Clear Bottom 96 Well Assay Plates (Corning Inc., cat. #3603) at a density of 5,000 cells/well. Immediately following the drug treatment, culture media were removed. Cells in each well were incubated with a mixture of reagents containing 50 μl DPBS, 50 μl reconstituted CellTiter-Glo® Assay and 0.5 μl CyQUANT for 10 min in the dark. Both ATP luminescence and CyQUANT fluorescence were recorded with a BioTek Multi-Mode Microplate Reader. The ATP production per cell was calculated as the ratio of ATP luminescence over CyQUANT fluorescence.

In the case of Gamitrinib, the “oxygen consumption rates (basal respiration, proton leak, ATP production, maximal respiration, spare respiratory capacity)” value [1] is reported as “significantly inhibited all key parameters of OCR”, the mitochondrial mass (mitochondrial mass) is reported as “decreases” and the “uptake of 2-NBDG” value (2-NBDG uptake) is reported as “decreased uptake of 2-NBDG”. For the same substance, the tumor growth ([2]; Gamitrinib 15 mg/kg alone) was “significantly impaired tumor growth”, the “% T/C (percentages of tumor volumes)” value ([2]; gamitrinib 5 mg/kg QD i.p.) was 124.59% and the “% T/C (percentages of tumor volumes)” value ([2]; gamitrinib 15 mg/kg QD i.p.) was 57.3%. For the same substance, the ATP production (ATP production) was “significantly decreased the ATP production”.
